One data set deals with A/H5N1 pseudovirus. Particulars: read-out: EC50 against A/H5N1 pseudovirus; cited from earlier work.
For the next data set, the system named is A/H5N1 virus. Particulars: read-out: EC50 against A/H5N1 virus; cited from earlier work.
In data set [1] the test system is A/H1N1 virus A/PR/8/34 (PR8). The data set is described as follows: microbe, parasite or virus in culture. Particulars: Influenza A virus, MDCK. The class given is cell-based.
Data set [2] has as its system A/H1N1 virus A/Virginia/ATCC3/2009 (Virg09). The data set is described as follows: microbe, parasite or virus in culture. Particulars: Influenza A virus, MDCK. The class given is cell-based, influenza A virus.
The test system of the next data set is A/H1N1 virus. The data set is described as follows: microbe, parasite or virus in culture. The class given is cell-based, influenza A virus. Particulars: Influenza A virus, H1N1, MDCK, read-out: Antiviral EC50 against A/H1N1 virus.
The test system of data set [3] is A/H1N1 virus Virg09 in Calu-3 cells. The data set is described as follows: microbe, parasite or virus in culture. The class given is cell-based. Particulars: Influenza A virus, H1N1, Calu-3, 72 h, read-out: EC50 in Calu-3 cells infected with Virg09.
The subject of data set [4] is A/H1N1 (Virg09) pseudovirus. The data set is described as follows: organism not typed. The class given is cell-based, influenza A virus.
In data set [5] the test system is A/H5N1 (FL22, A/bald eagle/FL/W22-114/2022) pseudovirus. Briefly: organism not typed. The data set is classed as cell-based, influenza A virus. Particulars: MDCK, 72 h, read-out: EC50 for A/H5N1 (FL22) pseudovirus entry.
The target of a further data set is H1 HA (Influenza A virus, UniProt C3W5S1). Briefly: cell-based.
Data set [6] concerns H5 HA (strain A/duck/Hunan/795/2002). The data set is classed as cell-based, influenza A virus.
Data set [7] deals with H1 HA protein (strain A/California/06/09). The class given is biochemical, influenza A virus. Particulars: pH 5.2.
In another data set the test system is MDCK cells. Particulars: dog.
The next data set is described as follows: in vitro. Particulars: dog.

Like-named read-outs stand apart in the source and are kept apart here. A value given as a limit tells only on which side of the number the result lay.

H1 HA, sequence (C3W5S1 18-344 limits assumed): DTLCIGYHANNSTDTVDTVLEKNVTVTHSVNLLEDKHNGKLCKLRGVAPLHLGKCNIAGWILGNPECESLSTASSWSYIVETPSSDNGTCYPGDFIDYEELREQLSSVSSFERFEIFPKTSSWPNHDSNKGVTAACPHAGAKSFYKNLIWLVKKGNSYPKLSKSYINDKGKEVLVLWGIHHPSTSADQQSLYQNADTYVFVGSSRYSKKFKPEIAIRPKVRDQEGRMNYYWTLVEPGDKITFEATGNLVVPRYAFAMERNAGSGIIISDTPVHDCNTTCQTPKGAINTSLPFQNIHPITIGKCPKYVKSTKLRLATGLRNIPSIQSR
H1 HA, sequence (C3W5S1 345-566 limits assumed): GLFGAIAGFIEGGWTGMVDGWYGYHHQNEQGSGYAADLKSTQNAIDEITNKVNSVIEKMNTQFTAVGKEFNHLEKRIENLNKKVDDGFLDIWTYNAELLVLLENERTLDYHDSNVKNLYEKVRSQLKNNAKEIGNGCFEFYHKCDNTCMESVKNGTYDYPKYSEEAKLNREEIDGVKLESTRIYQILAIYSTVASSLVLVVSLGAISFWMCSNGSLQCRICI

For `O=C(NCCc1cccs1)c1cc(F)cc(C(F)(F)F)c1` [Compound 20], the EC50 with A/H5N1 pseudovirus is 0.22 µM.
In the case of `Cc1cc(CNS(=O)(=O)c2ccc(C#N)cc2)c(C)s1` [Compound 21], in the data set with A/H5N1 virus, the EC50 is 0.47 µM.
As to `CC(C)c1ccccc1NCCN1CCCCC1` [RL-007, reference compound], the EC50 in data set [1] (read-out: Antiviral EC50 against A/H1N1 virus, PR8 strain, MTS) is 1.4 µM; in [1] (read-out: Antiviral EC50 against A/H1N1 virus, PR8 strain, Microscopy), 1.5 ± 0.1 µM; in [2] (read-out: Antiviral EC50 against A/H1N1 virus, Virg09 strain, MTS), 0.61 ± 0.06 µM; in data set [2] (read-out: Antiviral EC50 against A/H1N1 virus, Virg09 strain, Microscopy) it was 0.69 ± 0.09 µM; in the data set on A/H1N1 virus it was 0.6 to 1.5 µM; in data set [3], 0.53 µM. The EC50 in data set [4] (MDCK, 72 h, read-out: EC50 for A/H1N1 (Virg09) pseudovirus entry) was found to be 0.079 µM; in data set [5], 10 µM; at H1 HA, 4.1 µM. Also, the “Fold higher activity against A/H1N1 than A/H5N1 pseudovirus” value in [4] was about 127 fold. For the same compound, the “Inhibition of H5 HA cell-cell fusion at 6.3 μM” value in data set [6] was “inactive”. In addition, the “Inhibition of H5 HA cell-cell fusion at 25 μM” value in data set [6] is recorded as “partially effective”. Also, the “Inhibition of H5 HA cell-cell fusion at 100 μM” value in data set [6] was “complete inhibition”. Besides, the “Binding of H1 HA to stem antibody C179 after acidic incubation (pH 5.2) in presence of compound” value in data set [7] is “remained significantly higher”. Also, in the data set on MDCK cells, the “Cytotoxicity MCC, Microscopy” value is over 40 µM. In the data set “in vitro”, this compound displayed a CC50 of 33 ± 5 µM.

(Values after publication PMC12434670 (Journal of Medicinal Chemistry, 2025).)
